The target of the test is MBP (Escherichia coli, UniProt P0AEX9). Nature of the test: MicroScale Thermophoresis binding to MBP alone (control). The settings on record: MST. The text has this: The above results prompted us to reason whether HUHS015-36 could directly target caspase-2 for activation without the requirement of any other mediator. To directly test this hypothesis, we tried to obtain purified caspase-2 protein. The preparation of full-length caspase-2 protein is known to be technically challenging. Meanwhile, the CARD domain of a caspase often plays the role in sensing upstream signals, as exemplified by the CARD of caspase-2 that is recruited by RAIDD through the CARD–CARD interaction for assembling the PIDDosome. […]
Figure 4. […] (A) The direct binding between HUHS015-36 and MBP-fused human caspase-2 pro-domain was detected by microscale thermophoresis (MST). […] The calculated dissociation constant (KD) is expressed as means ± s.d. from two determinations. […] ATP-based cell viability in panels (C–E) is expressed as mean ± s.d. from three technical replicates. […] TEXT PRINTED IN THE PICTURE: (A) HUHS015-36: MBP-CASP2(32–165) vs. HUHS015-36: KD (μmol/L): 22.05 ± 6.151; MBP vs. HUHS015-36: KD (μmol/L): Not detected
MicroScale thermophoresis (MST) experiments were carried out at 25°C in the PBST Buffer (PBS with 0.05%, v/v Tween 20) by using a Monolith 2020 (TNG) (MM-208). […] The temperature-induced changes in fluorescence intensity of each sample in the capillary thermophoresis tubes were recorded by the Monolith instrument. […]
On the technique in general: MST reads how a fluorescent partner responds to local heating, with and without ligand.

With `Cc1cccc2nc(-n3nc4c(c3O)CCCC4)[nH]c12` [HUHS015-36], the KD entry is “Not detected”.

The values are drawn from PMC11637483, “Dissecting caspase-2-mediated cell death: from intrinsic PIDDosome activation to chemical modulation” (Protein & Cell, 2024).
